Experimental data published in publication PMC8854719, “Phase 1A/1B dose-escalation and -expansion study to evaluate the safety, pharmacokinetics, food effects and antitumor activity of pamiparib in advanced solid tumours” (British Journal of Cancer, 2021).

Tested on: advanced solid tumours
Experiment: Tumour response and PFS per RECIST v1.1, overall efficacy-evaluable population
Assay type: in vivo, human
Protocol: Pamiparib in plasma was measured using a validated liquid chromatography-tandem–mass spectrometry assay with a lower limit of quantification of 1.0 ng/mL. The collection schedule for blood samples used to assess the PK profile is presented in the Supplemental Appendix. Summary PK parameters, including area under the concentration-time curve from time 0 to 9 h (AUC0-9) or infinity (AUC0-inf), maximal plasma concentration (Cmax) and time to maximal plasma concentration (Tmax), were estimated. The pharmacodynamic (PD) activity of pamiparib was explored through the evaluation of poly(ADP-ribose [PAR]) formation in peripheral blood mononuclear cells (PBMCs) after pamiparib administration. The schedule for blood sample collection (PK and PBMCs) and additional assessment information for PAR levels in PBMCs and pharmacodynamic activity is presented in the Supplemental Appendix. Antitumor activity was assessed by radiographic imaging (computed tomography or magnetic resonance imaging) during screening, within 28 days of first pamiparib dose, every 6 weeks in the first 12 months and every 9 weeks thereafter.
Tumour response was evaluated by RECIST v1.1. For patients with ovarian cancer, tumour response was assessed per RECIST v1.1 and by Gynecologic Cancer Intergroup (GCIG) CA-125 criteria. Tumour response for patients with prostate cancer was assessed by Prostate Cancer Clinical Trials Working Group 2 (PCWG2) criteria. Objective response rate (ORR) was defined as the proportion of patients achieving a confirmed complete response (CR) or partial response (PR) on study treatment. Blood tumour antigens (e.g., carcinoembryonic antigen for colorectal cancer, CA-125 for ovarian cancer and prostate-specific antigen [PSA] for mCRPC) were assessed during screening, every 6 weeks after the first pamiparib dose in the first 12 months, and every 9 weeks thereafter.
The safety population comprised all patients in the dose-escalation and dose-expansion phases who received at least one dose of pamiparib (Supplementary Table S2). Patients in the safety analysis set for whom valid pamiparib PK parameters were estimated and for whom evaluable PD results were available represented the PK population and the PD population, respectively. The efficacy-evaluable population included patients in the safety analysis set who had at least one evaluable postbaseline tumour assessment or those who discontinued due to clinical disease progression or early death before tumour assessment could be performed. The EOC efficacy-evaluable population was a subset of the overall efficacy-evaluable population that included patients with EOC from both the dose-escalation and dose-expansion phases. Patients in the dose-expansion phase without measurable disease at baseline per RECIST v1.1 were excluded from the efficacy-evaluable population.
Descriptive statistics were used to summarise all study data (see Supplemental Appendix). Progression-free survival (PFS) and event-free rates were estimated using the Kaplan–Meier method along with the corresponding 95% CI. Pharmacokinetic parameters were derived using standard non-compartmental methods with Phoenix WinNonlin Version 6.4 or higher (Pharsight Corp., Mountain View, California).

[1] = BID efficacy-evaluable population (n = 77)
[2] = Total BID dosage group, overall efficacy-evaluable (n = 77)
[3] = dose escalation, 2.5 mg BID (n=4)
[4] = dose escalation, 5.0 mg BID (n=3)
[5] = dose escalation, 10 mg BID (n=3)

Question: `C[C@]12CCCN1CC1=NNC(=O)c3cc(F)cc4[nH]c2c1c34` [pamiparib] was tested. Which “Median duration of response” value (BID dosage group) did it give?
Answer: The value was 14.9 months.

Question: What about the “Confirmed CRs” value [1] of the same molecule?
Answer: Its value is 5.2%.

Question: And the “Confirmed PRs” value [1]?
Answer: The value was 22.1%.

Question: And the “Confirmed CRs (in words)” value (QD dosage group (n=18))?
Answer: Its value is “no confirmed CRs”.

Question: What about the “Confirmed ORR” value (QD dosage group (n=18)) of the same molecule?
Answer: The value was 11.1%.

Question: What about the “Confirmed PRs” value (QD dosage group (n=18)) of the same molecule?
Answer: Its value is 11.1%.

Question: What about the “Event-free rate, 1 year” value (Total (N=95)) of the same molecule?
Answer: Its value is 32.7 (21.73-44.18) % (95% CI).

Question: And the “Event-free rate, 2 years” value (Total (N=95))?
Answer: The value was 11.0 (4.13-21.80) % (95% CI).

Question: What about the “PFS censored: New anticancer therapy received before event” value (Total (N=95)) of the same molecule?
Answer: Its value is 1 (1.1) n (%).

Question: And the “PFS censored: No disease progression or death” value (Total (N=95))?
Answer: Its value is 27 (28.4) n (%).

Question: And the “PFS censored: No postbaseline assessment” value (Total (N=95))?
Answer: Its value is 5 (5.3) n (%).

Question: What about the “PFS censored: ≥2 consecutive missed assessments” value (Total (N=95)) of the same molecule?
Answer: The value was 2 (2.1) n (%).

Question: What about the “PFS events: Death” value (Total (N=95)) of the same molecule?
Answer: Its value is 10 (10.5) n (%).

Question: And the “PFS events: Disease progression” value (Total (N=95))?
Answer: Its value is 50 (52.6) n (%).

Question: What about the “PFS: Censored” value (Total (N=95)) of the same molecule?
Answer: The value was 35 (36.8) n (%).

Question: And the “PFS: Events” value (Total (N=95))?
Answer: The value was 60 (63.2) n (%).

Question: And the “Progression-Free Survival, Median” value (Total (N=95))?
Answer: The value was 5.5 (4.14-8.31) months (95% CI).

Question: What about the “Event-free rate, 1 year” value (Total BID Dosage Group (n=77)) of the same molecule?
Answer: Its value is 34.0 (21.72-46.58) % (95% CI).

Question: What about the “Event-free rate, 2 years” value (Total BID Dosage Group (n=77)) of the same molecule?
Answer: The value was 12.2 (4.52-24.01) % (95% CI).

Question: What about the “PFS censored: New anticancer therapy received before event” value (Total BID Dosage Group (n=77)) of the same molecule?
Answer: The value was 1 (1.3) n (%).

Question: And the “PFS censored: No disease progression or death” value (Total BID Dosage Group (n=77))?
Answer: The value was 20 (26.0) n (%).

Question: What about the “PFS censored: No postbaseline assessment” value (Total BID Dosage Group (n=77)) of the same molecule?
Answer: The value was 5 (6.5) n (%).

Question: And the “PFS censored: ≥2 consecutive missed assessments” value (Total BID Dosage Group (n=77))?
Answer: The value was 2 (2.6) n (%).

Question: And the “PFS events: Death” value (Total BID Dosage Group (n=77))?
Answer: Its value is 7 (9.1) n (%).

Question: And the “PFS events: Disease progression” value (Total BID Dosage Group (n=77))?
Answer: The value was 42 (54.5) n (%).

Question: And the “PFS: Censored” value (Total BID Dosage Group (n=77))?
Answer: Its value is 28 (36.4) n (%).

Question: What about the “PFS: Events” value (Total BID Dosage Group (n=77)) of the same molecule?
Answer: The value was 49 (63.6) n (%).

Question: What about the “Progression-Free Survival, Median” value (Total BID Dosage Group (n=77)) of the same molecule?
Answer: Its value is 6.9 (4.14-9.89) months (95% CI).

Question: And the “Best overall response: Complete response” value [2]?
Answer: Its value is 4 (5.2) n (%).

Question: And the “Best overall response: Not assessed” value [2]?
Answer: The value was 7 (9.1) n (%).

Question: What about the “Best overall response: Not evaluable” value [2] of the same molecule?
Answer: Its value is 1 (1.3) n (%).

Question: What about the “Best overall response: Partial response” value [2] of the same molecule?
Answer: The value was 17 (22.1) n (%).

Question: And the “Best overall response: Progressive disease” value [2]?
Answer: Its value is 11 (14.3) n (%).

Question: And the “Best overall response: Stable disease” value [2]?
Answer: The value was 37 (48.1) n (%).

Question: What about the Clinical benefit rate [2] of the same molecule?
Answer: Its Clinical benefit rate is 39.0 (28.1–50.8) % (95% CI).

Question: What about the Disease control rate [2] of the same molecule?
Answer: The Disease control rate was 75.3 (64.2–84.4) % (95% CI).

Question: And the Objective response rate [2]?
Answer: The Objective response rate was 27.3 (17.7–38.6) % (95% CI).

Question: What about the “Event-free rate, 1 year” value (Total QD Dosage Group (n=18)) of the same molecule?
Answer: The value was 30.1 (8.73-55.34) % (95% CI).

Question: What about the “Event-free rate, 2 years” value (Total QD Dosage Group (n=18)) of the same molecule?
Answer: Its value is 0.0 (NE-NE) % (95% CI).

Question: And the “PFS censored: New anticancer therapy received before event” value (Total QD Dosage Group (n=18))?
Answer: Its value is 0 (0) n (%).

Question: What about the “PFS censored: No disease progression or death” value (Total QD Dosage Group (n=18)) of the same molecule?
Answer: The value was 7 (38.9) n (%).

Question: And the “PFS censored: No postbaseline assessment” value (Total QD Dosage Group (n=18))?
Answer: Its value is 0 (0) n (%).

Question: What about the “PFS censored: ≥2 consecutive missed assessments” value (Total QD Dosage Group (n=18)) of the same molecule?
Answer: Its value is 0 (0) n (%).

Question: What about the “PFS events: Death” value (Total QD Dosage Group (n=18)) of the same molecule?
Answer: Its value is 3 (16.7) n (%).

Question: What about the “PFS events: Disease progression” value (Total QD Dosage Group (n=18)) of the same molecule?
Answer: The value was 8 (44.4) n (%).

Question: What about the “PFS: Censored” value (Total QD Dosage Group (n=18)) of the same molecule?
Answer: The value was 7 (38.9) n (%).

Question: And the “PFS: Events” value (Total QD Dosage Group (n=18))?
Answer: Its value is 11 (61.1) n (%).

Question: And the “Progression-Free Survival, Median” value (Total QD Dosage Group (n=18))?
Answer: The value was 4.9 (3.22-12.32) months (95% CI).

Question: And the “Best overall response: Complete response” value [3]?
Answer: The value was 0 (0.0) n (%).

Question: And the “Best overall response: Not assessed” value [3]?
Answer: The value was 2 (50.0) n (%).

Question: And the “Best overall response: Not evaluable” value [3]?
Answer: The value was 0 (0.0) n (%).

Question: And the “Best overall response: Partial response” value [3]?
Answer: The value was 1 (25.0) n (%).

Question: What about the “Best overall response: Progressive disease” value [3] of the same molecule?
Answer: The value was 1 (25.0) n (%).

Question: And the “Best overall response: Stable disease” value [3]?
Answer: Its value is 0 (0.0) n (%).

Question: What about the Clinical benefit rate [3] of the same molecule?
Answer: The Clinical benefit rate was 25.0 (0.63-80.59) % (95% CI).

Question: And the Disease control rate [3]?
Answer: The Disease control rate was 25.0 (0.63-80.59) % (95% CI).

Question: And the Objective response rate [3]?
Answer: Its Objective response rate is 25.0 (0.63-80.59) % (95% CI).

Question: And the “Best overall response: Complete response” value [4]?
Answer: The value was 0 (0.0) n (%).

Question: What about the “Best overall response: Not assessed” value [4] of the same molecule?
Answer: Its value is 1 (33.3) n (%).

Question: What about the “Best overall response: Not evaluable” value [4] of the same molecule?
Answer: The value was 0 (0.0) n (%).

Question: What about the “Best overall response: Partial response” value [4] of the same molecule?
Answer: The value was 1 (33.3) n (%).

Question: And the “Best overall response: Progressive disease” value [4]?
Answer: The value was 0 (0.0) n (%).

Question: And the “Best overall response: Stable disease” value [4]?
Answer: The value was 1 (33.3) n (%).

Question: And the Clinical benefit rate [4]?
Answer: Its Clinical benefit rate is 33.3 (0.84-90.57) % (95% CI).

Question: And the Objective response rate [4]?
Answer: The Objective response rate was 33.3 (0.84-90.57) % (95% CI).

Question: And the “Best overall response: Complete response” value [5]?
Answer: The value was 0 (0.0) n (%).

Question: And the “Best overall response: Not assessed” value [5]?
Answer: The value was 0 (0.0) n (%).
